Test [1] addresses T1, plasma-derived (pd-) human Factor VIII (FVIII) (Homo sapiens, UniProt P00451).
T1 construct: from tissue; host or cells: human blood plasma (FVIII concentrate)
Nature of the test: Binding of 125I-labeled pd-FVIII to peptides immobilized on Toyopearl AF-Epoxy-650M resin (micro-beads assay). The following applies: Table 1. As for the experimental part:
Peptides P1 to P25 were immobilized on the Toyopearl AF-Epoxy-650M resin (Tosoh Biosep) as described by Jungbauer et al. For immobilization, 2.5 mg of each peptide was dissolved in 0.25 mL of the immobilization buffer (0.2 M sodium bicarbonate, pH 10.3), and 0.036 g of the dry resin powder (corresponding to 0.125 mL of swollen resin) was added, followed by incubation of the mixture with gentle rotation for 48 hours. Upon incubation for 48 hours the resin was washed once with immobilization buffer, once with 1 M NaCl and then 3 times with binding buffer, and binding of ^125I-labeled pd-FVIII to the peptide-coated and control resin was tested. The coupling density of each peptide in each of the reported experiments was as mentioned in Table 1. The control 0.25 mL portion of the resin was similarly treated in parallel experiment in the absence of peptide and was subsequently used as a control (designated as Background) in ^125I-pd-FVIII binding experiments. ^125I-pd-FVIII Bound/Background ratios were calculated as the amount of ^125I-pd-FVIII, bound to an immobilized peptide, divided by that bound to uncoated control resin, prepared as described above. This ratio represents a Signal/Noise ratio for the micro-beads assay, since ^125I-pd-FVIII bound to peptide represents the signal value and ^125I-pd-FVIII bound to peptide-uncoated resin represents the background (noise) value.
Plasma-derived (pd-) human Factor VIII (FVIII) was purified from concentrate by immunoaffinity chromatography on an anti-FVIII monoclonal antibody column followed by subsequent concentration of pd-FVIII by ion-exchange chromatography using Resource Q HR5/5 column. To separate FVIII from vWf, concentrate was incubated in 0.35 M NaCl, 0.04 M CaCl2, prior to affinity purification.
Trace amounts of vWf, which are potentially present in pd-FVIII preparation, were removed by passing pd-FVIII preparation through the column with anti-vWf high affinity monoclonal antibody, immobilized at the density 1.4 mg per mL of resin.
Ten μg of purified pd-FVIII were iodinated using lactoperoxidase beads and 0.5 mCi of Na^125I.
(§1) The resin with immobilized peptides was washed in the binding buffer (0.01 M Hepes, 0.1 M NaCl, 5 mM CaCl2, 0.01% Tween-80). Subsequently, the resin was diluted in the binding buffer as 1:7 slurry and aliquoted into Eppendorf tubes (40 μl per tube). ^125I-pd-FVIII (100000 cpm in 10 μl) was added to the tubes and the volume of the mixture was adjusted to 100 μl by adding 50 μl of the binding buffer containing 4% BSA to give a 2% final concentration of BSA. After 2 hours of incubation at room temperature on a rotator, the samples were washed 4 times in the binding. After each wash the tubes were centrifuged at 5000 rpm for 1 min in an Eppendorf microcentrifuge, supernatant was discarded, and the resin was re-suspended in the washing buffer, followed by centrifugation under the same conditions. After four washes the tubes with pellet without supernatant were counted for radioactivity. The resin without peptide was processed similarly to account for non-specific pd-FVIII binding to tubes and resin itself, and the radioactivity in this control tube was considered as a background value. Since ^125I-pd-FVIII contains the some fraction damaged during radiolabeling, binding was calculated as a percent of maximal achievable binding, determined in separate experiment with anti-FVIII Mab 8860-coated resin.
All the measurements were performed in duplicates. Each experiment was performed using two independently prepared immobilized peptide samples. The data presented in each figure are the mean values of the four determinations: duplicate determination in the two assays performed with beads on which peptides were independently immobilized on the different days. […]

The target in test [2] is T2, ReFacto® (recombinant form of FVIII) (Homo sapiens, UniProt P00451, DEL763-1656).
T2 construct: purchased Wyeth-Ayerst Pharmacia and Upjohn; host or cells: CHO cells
T2 sequence (P00451 with tags, fused parts or gaps DEL763-1656 limits assumed): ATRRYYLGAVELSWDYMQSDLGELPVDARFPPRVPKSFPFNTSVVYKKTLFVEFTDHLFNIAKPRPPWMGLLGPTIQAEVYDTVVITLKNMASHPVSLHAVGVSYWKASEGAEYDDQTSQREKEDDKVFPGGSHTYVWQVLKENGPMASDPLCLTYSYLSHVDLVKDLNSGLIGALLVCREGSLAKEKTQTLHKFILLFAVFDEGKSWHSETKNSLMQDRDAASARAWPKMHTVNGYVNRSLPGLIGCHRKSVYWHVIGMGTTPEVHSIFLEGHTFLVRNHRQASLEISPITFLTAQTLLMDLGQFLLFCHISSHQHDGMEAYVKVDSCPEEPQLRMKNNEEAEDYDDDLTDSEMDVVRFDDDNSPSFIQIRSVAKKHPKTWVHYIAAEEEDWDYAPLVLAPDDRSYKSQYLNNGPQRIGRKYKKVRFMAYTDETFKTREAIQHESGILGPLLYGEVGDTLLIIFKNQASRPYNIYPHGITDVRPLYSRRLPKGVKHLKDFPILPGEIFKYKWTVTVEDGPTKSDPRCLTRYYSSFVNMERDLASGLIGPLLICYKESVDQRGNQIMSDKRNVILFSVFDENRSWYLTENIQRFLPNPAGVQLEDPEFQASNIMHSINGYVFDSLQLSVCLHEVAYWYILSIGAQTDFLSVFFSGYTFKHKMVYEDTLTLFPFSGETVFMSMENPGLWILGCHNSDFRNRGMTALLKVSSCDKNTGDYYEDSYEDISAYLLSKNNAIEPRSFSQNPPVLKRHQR
T2 sequence (P00451 1668-2351 limits assumed): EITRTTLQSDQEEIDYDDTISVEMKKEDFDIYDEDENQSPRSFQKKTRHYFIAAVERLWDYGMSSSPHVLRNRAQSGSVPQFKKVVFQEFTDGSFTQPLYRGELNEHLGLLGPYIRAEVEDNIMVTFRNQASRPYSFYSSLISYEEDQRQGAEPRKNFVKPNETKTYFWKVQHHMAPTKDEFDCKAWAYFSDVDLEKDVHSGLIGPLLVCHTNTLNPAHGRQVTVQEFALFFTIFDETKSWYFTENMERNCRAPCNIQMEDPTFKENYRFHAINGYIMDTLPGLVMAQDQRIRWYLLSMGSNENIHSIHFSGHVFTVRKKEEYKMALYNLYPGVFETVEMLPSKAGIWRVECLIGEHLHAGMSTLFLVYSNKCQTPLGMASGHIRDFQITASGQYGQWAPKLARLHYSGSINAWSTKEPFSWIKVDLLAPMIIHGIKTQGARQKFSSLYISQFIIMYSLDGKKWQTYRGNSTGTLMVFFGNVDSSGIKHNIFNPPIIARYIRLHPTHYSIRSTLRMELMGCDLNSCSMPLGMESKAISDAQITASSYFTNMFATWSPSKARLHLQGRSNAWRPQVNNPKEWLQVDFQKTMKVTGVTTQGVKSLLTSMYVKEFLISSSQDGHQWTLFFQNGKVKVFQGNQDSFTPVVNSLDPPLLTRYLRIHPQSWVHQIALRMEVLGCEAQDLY
Kind of test: Binding of 125I-ReFacto to peptide-coated resin. The following applies: resin coated with peptide. As for the experimental part: as §1, with “After each wash the tubes were centrifuged at 5000 rpm for 1 min in an Eppendorf microcentrifuge, supernatant was discarded, and the resin was re-suspended in the washing buffer, followed by centrifugation under the same conditions.” left out, “resin. […]” for “resin.”
(§2) Kogenate® and ReFacto® were iodinated in the same manner as described in Example 1 with respect to the pd-FVIII. Protein binding was measured using the same procedures as described in Example 1 above.

In test [3] the target is T3, Kogenate® (recombinant form of FVIII) (Homo sapiens, UniProt P00451).
T3 construct: purchased Bayer; host or cells: baby hamster kidney (BHK) cells
T3 sequence (P00451 20-1667 limits assumed, one chain of several): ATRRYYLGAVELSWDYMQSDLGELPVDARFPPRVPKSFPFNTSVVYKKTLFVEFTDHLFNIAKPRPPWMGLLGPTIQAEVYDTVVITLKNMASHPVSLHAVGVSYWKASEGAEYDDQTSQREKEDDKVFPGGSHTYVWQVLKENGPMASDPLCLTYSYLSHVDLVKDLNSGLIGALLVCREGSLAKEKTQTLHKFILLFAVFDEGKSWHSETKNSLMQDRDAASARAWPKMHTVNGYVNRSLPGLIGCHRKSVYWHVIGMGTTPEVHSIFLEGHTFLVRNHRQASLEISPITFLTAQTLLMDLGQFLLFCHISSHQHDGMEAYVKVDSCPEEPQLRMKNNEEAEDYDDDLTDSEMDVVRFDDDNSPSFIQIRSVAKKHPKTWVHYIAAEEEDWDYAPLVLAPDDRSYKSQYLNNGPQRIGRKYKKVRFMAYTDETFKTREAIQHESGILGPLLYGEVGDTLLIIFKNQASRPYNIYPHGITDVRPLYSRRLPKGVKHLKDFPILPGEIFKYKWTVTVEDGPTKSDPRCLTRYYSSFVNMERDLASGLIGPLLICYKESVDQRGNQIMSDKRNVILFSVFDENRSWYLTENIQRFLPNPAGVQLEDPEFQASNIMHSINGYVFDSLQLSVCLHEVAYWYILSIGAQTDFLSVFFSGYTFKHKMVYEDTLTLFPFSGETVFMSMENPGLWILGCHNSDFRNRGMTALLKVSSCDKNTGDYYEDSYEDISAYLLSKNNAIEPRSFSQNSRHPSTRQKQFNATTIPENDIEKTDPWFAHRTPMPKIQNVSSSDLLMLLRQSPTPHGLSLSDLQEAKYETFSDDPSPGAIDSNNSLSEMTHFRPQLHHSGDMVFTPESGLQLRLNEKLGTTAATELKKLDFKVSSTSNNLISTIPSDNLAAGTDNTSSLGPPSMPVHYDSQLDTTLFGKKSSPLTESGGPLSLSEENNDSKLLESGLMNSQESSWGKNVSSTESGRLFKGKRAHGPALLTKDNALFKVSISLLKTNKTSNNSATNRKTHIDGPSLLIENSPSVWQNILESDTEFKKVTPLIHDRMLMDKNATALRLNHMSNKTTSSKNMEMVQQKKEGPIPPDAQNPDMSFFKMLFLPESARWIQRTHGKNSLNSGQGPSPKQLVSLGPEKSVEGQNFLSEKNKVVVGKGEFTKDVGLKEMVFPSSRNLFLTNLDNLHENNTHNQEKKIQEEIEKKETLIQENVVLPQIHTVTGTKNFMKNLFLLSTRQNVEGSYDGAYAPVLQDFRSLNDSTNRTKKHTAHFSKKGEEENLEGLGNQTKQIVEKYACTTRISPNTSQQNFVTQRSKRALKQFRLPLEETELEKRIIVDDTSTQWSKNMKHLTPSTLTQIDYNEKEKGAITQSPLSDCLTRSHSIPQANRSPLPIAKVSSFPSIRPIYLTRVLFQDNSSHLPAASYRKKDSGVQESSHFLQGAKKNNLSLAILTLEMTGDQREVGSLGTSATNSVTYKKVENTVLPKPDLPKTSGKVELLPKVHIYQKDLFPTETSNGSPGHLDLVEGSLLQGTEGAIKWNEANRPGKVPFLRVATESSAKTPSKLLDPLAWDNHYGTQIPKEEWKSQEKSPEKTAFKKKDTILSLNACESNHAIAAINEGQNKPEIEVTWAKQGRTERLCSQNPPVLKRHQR
Nature of the test: Binding of 125I-Kogenate to peptide-coated resin. The following applies: resin coated with peptide. The protocol:
as §1, with “After each wash the tubes were centrifuged at 5000 rpm for 1 min in an Eppendorf microcentrifuge, supernatant was discarded, and the resin was re-suspended in the washing buffer, followed by centrifugation under the same conditions.” left out, “resin. […]” for “resin.”
as §2

T1 sequence (P00451 20-1667 limits assumed, one chain of several): as above

With IAA-Glu-Tyr-Cys-OH [Compound P15], the “Binding, rel. to control” value in test [1] (125I-pd-FVIII Bound/Background ratio versus uncoated control resin) is listed as 39.3 ± 0.3. For the same substance, in test [1] (immobilized on Toyopearl AF-Epoxy-650M, percent of maximal achievable binding (anti-FVIII Mab 8860-coated resin), mean of four determinations), the “% Binding pdFVIII” value is reported as 75.4 ± 0.6%. Besides, the “125I-ReFacto binding (% of total)” value in test [2] is on record as 54.9 ± 6.3 % of total. Moreover, the “125I-Kogenated FS binding (% of total)” value in test [3] was 49.6 ± 1.7 % of total.

The record behind these values is US20090215025A1, “SMALL PEPTIDIC AND PEPTIDO-MIMETIC AFFINITY LIGANDS FOR FACTOR VIII AND FACTOR VIII-LIKE PROTEINS” (TECHNISCHE UNIVERSITAT MUNCHEN, priority 2005, published 2009).
